This note sets out measurements from US20020192821A1, “Increased functional activity and/or expression of ABC transporters protects against the loss of dopamine neurons associated with Parkinson's disease” (Active Pass Pharmaceuticals, Inc., priority 2001, published 2002).

One assay deals with T1, ABCG4 transporter (Homo sapiens, UniProt Q9H172).
T1 construct: expressed in transfected cells; host or cells: hDAT-SK-N-MC (human neuroblastoma SK-N-MC stably expressing hDAT), transient transfection, pCEP4 or pcDNA3.1
T1 sequence (Q9H172 whole entry): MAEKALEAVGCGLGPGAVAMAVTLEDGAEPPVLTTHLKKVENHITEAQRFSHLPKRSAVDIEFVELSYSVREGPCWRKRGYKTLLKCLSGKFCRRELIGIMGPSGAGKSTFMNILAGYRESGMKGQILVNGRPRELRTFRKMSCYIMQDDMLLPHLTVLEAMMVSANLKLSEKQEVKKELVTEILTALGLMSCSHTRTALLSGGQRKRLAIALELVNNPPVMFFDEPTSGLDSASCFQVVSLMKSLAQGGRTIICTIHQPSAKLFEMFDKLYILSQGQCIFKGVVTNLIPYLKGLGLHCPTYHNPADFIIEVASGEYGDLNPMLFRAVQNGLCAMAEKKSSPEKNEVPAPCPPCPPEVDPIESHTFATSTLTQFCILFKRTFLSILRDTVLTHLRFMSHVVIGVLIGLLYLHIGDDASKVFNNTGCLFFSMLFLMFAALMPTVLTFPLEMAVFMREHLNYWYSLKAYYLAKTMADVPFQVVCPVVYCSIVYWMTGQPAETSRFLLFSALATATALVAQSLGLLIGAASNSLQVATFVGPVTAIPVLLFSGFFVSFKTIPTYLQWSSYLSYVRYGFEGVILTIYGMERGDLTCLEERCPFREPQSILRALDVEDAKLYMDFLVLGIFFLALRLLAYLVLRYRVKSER
The assay is described as follows: Dopamine-induced cytotoxicity (MTT assay) in hDAT cells transiently transfected with ABCG4, in the presence of ABC transporter inhibitors. Format: cell-based. Conditions: hDAT-SK-N-MC cells transfected with ABCG4, DA 50 μM for 24 hours, glipizide 250 μM or probenecid 500 μM added two hours prior to DA, FIG. 2. (In general: Tetrazolium assays rely on reduction of a dye to a coloured formazan, in cell work by metabolically active cells.)

For another assay, the target named is ABCC5 transporter (Homo sapiens, UniProt O15440). Conditions: hDAT-SK-N-MC cells transfected with ABCC5; DA 50 μM for 24 hours; glipizide 250 μM or probenecid 500 μM added two hours prior to DA; MTT; FIG. 2.
ABCC5 transporter, sequence (O15440 whole entry): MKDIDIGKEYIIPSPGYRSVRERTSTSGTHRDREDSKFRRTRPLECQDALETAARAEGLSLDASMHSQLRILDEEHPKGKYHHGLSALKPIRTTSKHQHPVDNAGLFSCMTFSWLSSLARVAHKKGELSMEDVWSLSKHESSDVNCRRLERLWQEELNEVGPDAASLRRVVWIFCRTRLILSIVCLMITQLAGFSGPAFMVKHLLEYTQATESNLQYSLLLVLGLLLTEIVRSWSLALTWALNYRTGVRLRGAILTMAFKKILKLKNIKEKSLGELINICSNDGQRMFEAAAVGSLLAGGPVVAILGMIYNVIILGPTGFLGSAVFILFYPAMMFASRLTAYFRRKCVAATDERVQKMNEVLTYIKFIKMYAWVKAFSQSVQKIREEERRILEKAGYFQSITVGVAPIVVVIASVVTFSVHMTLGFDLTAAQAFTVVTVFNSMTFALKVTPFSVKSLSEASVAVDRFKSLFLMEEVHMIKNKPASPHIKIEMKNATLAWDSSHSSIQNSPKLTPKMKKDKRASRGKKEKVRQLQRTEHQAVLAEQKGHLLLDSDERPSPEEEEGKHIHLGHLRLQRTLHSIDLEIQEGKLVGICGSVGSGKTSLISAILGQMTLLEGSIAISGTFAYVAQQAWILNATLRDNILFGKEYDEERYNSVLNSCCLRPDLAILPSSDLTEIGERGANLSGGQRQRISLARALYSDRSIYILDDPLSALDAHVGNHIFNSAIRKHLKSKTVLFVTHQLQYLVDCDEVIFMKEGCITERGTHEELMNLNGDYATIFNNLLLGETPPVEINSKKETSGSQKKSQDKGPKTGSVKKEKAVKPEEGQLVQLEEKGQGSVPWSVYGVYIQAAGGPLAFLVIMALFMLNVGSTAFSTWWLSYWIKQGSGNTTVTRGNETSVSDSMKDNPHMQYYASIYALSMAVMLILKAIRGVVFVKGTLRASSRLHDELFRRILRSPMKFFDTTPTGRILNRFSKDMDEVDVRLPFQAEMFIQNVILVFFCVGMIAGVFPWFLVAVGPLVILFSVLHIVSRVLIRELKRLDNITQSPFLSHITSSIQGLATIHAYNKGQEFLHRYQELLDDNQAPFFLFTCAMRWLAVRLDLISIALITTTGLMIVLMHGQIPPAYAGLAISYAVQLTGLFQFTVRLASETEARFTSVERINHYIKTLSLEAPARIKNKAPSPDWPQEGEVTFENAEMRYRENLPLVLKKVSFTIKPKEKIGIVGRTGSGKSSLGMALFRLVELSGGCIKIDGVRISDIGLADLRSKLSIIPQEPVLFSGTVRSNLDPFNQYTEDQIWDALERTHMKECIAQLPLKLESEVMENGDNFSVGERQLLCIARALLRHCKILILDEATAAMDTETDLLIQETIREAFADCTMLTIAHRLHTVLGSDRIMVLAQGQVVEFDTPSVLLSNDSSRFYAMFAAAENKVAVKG

Turning to `CCCN(CCC)S(=O)(=O)c1ccc(C(=O)O)cc1` [probenecid], on ABCG4 transporter, the “effect on the protective effect of ABCG4 against dopamine-induced toxicity” value is reported as “reversed the protective effect”. In addition, the “effect on the protective effect of ABCC5 against dopamine-induced toxicity” value at ABCC5 transporter was “reversed the protective effect”.
